Measurements as given in patent EP0621773B1, “FORMULATION AND USE OF CAROTENOIDS IN TREATMENT OF CANCER” (BOARD OF REGENTS THE UNIVERSITY OF TEXAS SYSTEM, priority 1992, dated 1993).

Assays:
[1] = test system: THP-1 cells; test: Tumor formation of in vitro treated THP-1 cells injected subcutaneously into mice; assay type: in vivo; conditions: cells treated in vitro for 72 hours, injected subcutaneously into male mice
[2] = test system: human histiocytic cell line U-937; test: Cell growth inhibition, 72 hr, 96 well microtiter plate; assay type: cell-based; conditions: retinoic acid concentration of about 10 ug/ml
Description: (§1) Cells of the human monocytic cell line THP-1 and of the human histiocytic cell line U-937 were inoculated at about 20,000 cells per well in aliquots of eucaryotic cell culture medium contained in wells of a 96 well microtiter plate. The medium in various wells contained different amount of free RA or L-RA (DMPC:DMPG 7:3). The cells were incubated for 72 hr at 37°C and cell growth determined and compared to that of controls without any form of retinoic acid. […] At concentrations of less than 1 µg RA/ml, both preparations inhibited cell growth by over 90%.
Cells of the human histiocytic cell line U-937 were distributed and cultured under the same conditions as the THP-1 cells in the prior experiment. […] It should be noted that the U-937 cells were almost completely growth-inhibited by L-RA at a retinoic acid concentration of about 10 ug/ml while this amount of free RA inhibited growth less than 50%.

[3] = test system: M5076; test: In vitro sensitivity of M5076 cells to retinoic acid; assay type: cell-based
[4] = test system: human monocytic cell line THP-1; test: Cell growth inhibition, 72 hr, 96 well microtiter plate; assay type: cell-based; conditions: concentrations of less than 1 µg RA/ml, 72 hr at 37°C
Description: as §1

[5] = test system: human monocytic leukemia THP-1 cells; test: Morphological change associated with cellular differentiation; assay type: cell-based; conditions: 0.3 µg RA/ml, 72 hr incubation
Description: The generally ovate form was retained when the cells were cultured in the absence of any free or liposomal retinoic acid.

[6] = test system: tissue transglutaminase; test: Induction of tissue transglutaminase activity in THP-1 cells (marker for monocytic cell differentiation); assay type: cell-based, human; conditions: 0.3 µg/ml or 0.6 µg/ml, 24 hr
[7] = test system: human red blood cells (RBCs); test: In vitro lysis of human erythrocytes (hemoglobin release, optical density at 550 nm); assay type: cell-based
Description: Lysis of human red blood cells (RBCs) was quantitated by measuring the release of hemoglobin in the supernatants by observation of increases in optical density at 550 nanometers (nm), as described previously (Mehta, et al., Biochem. Biophys, Acta., Vol. 770-, pp 230-234 (1984). Free-RA dissolved in dimethyl formamide (DMFA), was added to the RBCs. Results with appropriate solvent controls, empty liposomes, and empty liposomes plus free-drug were also noted. Release of hemoglobin by hypotonic lysis of the same number of human RBCs by water was taken as a 100% positive control, while cells treated with PBS were taken as negative controls.
Preparations of L-RA comprising various lipids were incubated at a concentration of 20 microgram (µg) RA per ml with RBCs in PBS for 4 hr at 37°C.
A further experiment concerning the toxicity over time of free RA and L-RA (DMPC:DMPG-7:3) toward RBC was conducted. Human erythrocytes were incubated at 37°C in PBS with 10 ug/ml free RA or 120 ug/ml L-RA, and RBC lysis monitored over a period of 5 hr. […] When a similar manipulation was performed with L-RA (DMPC:DMPG(7:3)) at a RA concentration of 120 ug/ml, little RBC lysis occurred (e.g., less than 10% after […]).
A study was also conducted concerning the effects upon RBC lysis in 2 hr of free RA and L-RA (DMPC:DMPG(7:3)) at various concentrations. […]

[8] = in vivo; conditions: mouse, in vivo, iv
Description: (§2) The acute toxicity of free and liposomal all-trans retinoic acid was studied in CD1 mice. Free all-trans retinoic acid was prepared as an emulsion in normal saline containing 10% DMSO and 2% Tween 80 at a concentration of 3 to 5 mg/ml. Liposomal all-trans retinoic acid was prepared using a lipid:drug ratio of 15:1. The final concentration of all-trans retinoic acid in the liposomal preparation was 3 mg/ml. Empty liposomes of the same lipid composition (DMPC:DMPG 7:3) were also tested at doses equivalent to 80 mg/kg, 100 mg/kg, and 120 mg/kg of liposomal-all trans retinoic acid. Normal saline containing 10% DMSO and 2% Tween 80 was also tested as a control at a dose equivalent to 50 mg/kg of free all-trans retinoic acid. All drugs tested were injected intravenously via tail vein as a single bolus. The injected volumes of free and liposomal-all-trans retinoic acid were the same for each dose.

[9] = test system: CD1 mice; test: in vivo; conditions: for Number Animals with seizures / Number Animals alive (72 hr): CD1, mouse, in vivo, iv
Description: as §2

SMILES: CC1=C(/C=C/C(C)=C/C=C/C(C)=C/C(=O)O)C(C)(C)CCC1 [Free RA, all-trans retinoic acid]
- tumor development of treated THP-1 cells in mice [1]: failed to develop into tumors
- inhibition at 10 µg/mL [2]: < 50%
- sensitivity of M5076 cell line in in vitro studies [3]: resistant
- inhibition of THP-1 cell growth [4]: over 90%
- morphological appearance of THP-1 cells [5]: more flattened and spread morphological appearance
- tissue transglutaminase enzymic activity [6]: increased levels of tissue transglutaminase enzymic activity
- RBC lysis over time ([7]; 10 ug/ml, 37°C in PBS, between about 1 hr and about 3 hr): extensively lysed a large majority of the erythrocytes
- RBC lysis in 2 hr as a function of concentration ([7]; between about 5 ug RA/ml and about 30 ug RA/ml, 2 hr): linearly increasing RBC lysis
- LD50 at 72 h [8]: 32 mg/kg
- Number Animals with seizures ([9]; 10 mg/kg): 0/6
- Number Animals alive (72 hr) ([9]; 10 mg/kg): 6/6
- Number Animals with seizures ([9]; 20 mg/kg): 6/6
- Number Animals alive (72 hr) ([9]; 20 mg/kg): 5/6
- Number Animals with seizures ([9]; 30 mg/kg): 6/6
- Number Animals alive (72 hr) ([9]; 30 mg/kg): 4/6
- Number Animals with seizures ([9]; 40 mg/kg): 3/3
- Number Animals alive (72 hr) ([9]; 40 mg/kg): 0/3
- Number Animals with seizures ([9]; 50 mg/kg): 3/3
- Number Animals alive (72 hr) ([9]; 50 mg/kg): 0/3
- maximum non-toxic dose ([9]; i.v. single bolus, CD1 mice): 10 mg/kg
